Among the data in ChEMBL document CHEMBL5291721, “A preclinical secondary pharmacology resource illuminates target-adverse drug reaction associations of marketed drugs” (Nat Commun, 2023) are AC50 values, retold here.

In assay [1] the target is T1, 5-hydroxytryptamine receptor 3A (Homo sapiens, UniProt P46098).
T1 sequence (P46098 whole entry): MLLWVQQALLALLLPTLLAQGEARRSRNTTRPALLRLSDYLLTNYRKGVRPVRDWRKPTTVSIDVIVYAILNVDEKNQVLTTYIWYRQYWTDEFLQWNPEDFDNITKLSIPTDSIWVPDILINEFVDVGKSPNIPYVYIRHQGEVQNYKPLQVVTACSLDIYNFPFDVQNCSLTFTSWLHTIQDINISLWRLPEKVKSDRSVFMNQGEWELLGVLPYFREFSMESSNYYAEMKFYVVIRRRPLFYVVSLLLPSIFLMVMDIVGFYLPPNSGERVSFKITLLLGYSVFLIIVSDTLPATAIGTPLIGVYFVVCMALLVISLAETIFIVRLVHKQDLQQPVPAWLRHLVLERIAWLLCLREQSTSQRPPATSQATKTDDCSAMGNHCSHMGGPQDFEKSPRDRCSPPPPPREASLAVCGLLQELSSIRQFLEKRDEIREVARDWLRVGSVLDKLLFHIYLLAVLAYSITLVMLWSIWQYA
The class given is functional.

In assay [2] the target is T2, Thromboxane A2 receptor (Homo sapiens, UniProt P21731).
T2 sequence (P21731 whole entry): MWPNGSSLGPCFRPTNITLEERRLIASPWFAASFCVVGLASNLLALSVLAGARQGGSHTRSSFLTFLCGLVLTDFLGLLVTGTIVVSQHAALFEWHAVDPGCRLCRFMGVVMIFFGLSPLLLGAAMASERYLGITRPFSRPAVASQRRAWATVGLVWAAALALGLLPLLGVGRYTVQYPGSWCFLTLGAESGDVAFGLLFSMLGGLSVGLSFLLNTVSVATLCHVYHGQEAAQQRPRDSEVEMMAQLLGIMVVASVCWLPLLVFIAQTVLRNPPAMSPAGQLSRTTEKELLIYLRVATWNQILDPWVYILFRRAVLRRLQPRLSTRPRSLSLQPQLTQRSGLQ

In assay [3] the target is Sodium-dependent dopamine transporter (Homo sapiens, UniProt Q01959).
Chain of Sodium-dependent dopamine transporter (Q01959 whole entry): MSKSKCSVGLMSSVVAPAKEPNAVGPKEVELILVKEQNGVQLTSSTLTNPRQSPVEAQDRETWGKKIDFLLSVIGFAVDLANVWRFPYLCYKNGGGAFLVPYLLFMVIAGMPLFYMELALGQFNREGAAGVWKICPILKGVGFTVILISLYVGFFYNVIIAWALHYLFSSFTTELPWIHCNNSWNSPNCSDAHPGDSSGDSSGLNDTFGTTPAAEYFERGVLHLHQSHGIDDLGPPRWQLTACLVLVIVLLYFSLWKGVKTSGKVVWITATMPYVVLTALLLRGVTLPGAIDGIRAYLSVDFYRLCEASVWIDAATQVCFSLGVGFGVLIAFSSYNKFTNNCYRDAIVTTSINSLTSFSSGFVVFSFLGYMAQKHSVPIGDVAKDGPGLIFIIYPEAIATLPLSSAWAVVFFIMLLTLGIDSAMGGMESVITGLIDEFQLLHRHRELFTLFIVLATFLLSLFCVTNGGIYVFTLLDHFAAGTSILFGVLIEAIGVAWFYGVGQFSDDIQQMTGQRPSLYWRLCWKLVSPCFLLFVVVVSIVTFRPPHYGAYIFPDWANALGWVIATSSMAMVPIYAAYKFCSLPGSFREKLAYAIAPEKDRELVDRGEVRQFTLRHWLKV
Assay [4] addresses T3, Cholecystokinin receptor type A (Homo sapiens, UniProt P32238).
T3 sequence (P32238 whole entry): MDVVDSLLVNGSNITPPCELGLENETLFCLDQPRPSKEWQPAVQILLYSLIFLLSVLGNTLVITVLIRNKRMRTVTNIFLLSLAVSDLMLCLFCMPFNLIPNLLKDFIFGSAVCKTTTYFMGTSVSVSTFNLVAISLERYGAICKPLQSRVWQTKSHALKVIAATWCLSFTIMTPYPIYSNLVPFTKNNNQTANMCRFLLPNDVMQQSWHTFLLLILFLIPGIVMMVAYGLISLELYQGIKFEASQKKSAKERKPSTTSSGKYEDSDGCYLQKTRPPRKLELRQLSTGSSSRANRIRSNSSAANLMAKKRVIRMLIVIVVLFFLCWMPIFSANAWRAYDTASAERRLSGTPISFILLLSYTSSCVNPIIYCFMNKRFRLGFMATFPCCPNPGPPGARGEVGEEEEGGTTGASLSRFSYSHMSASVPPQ

Assay [5] has as its target Glutamate receptor ionotropic, NMDA 1 (Rattus norvegicus, UniProt P35439).
The target of assay [6] is T4, 5-hydroxytryptamine receptor 2C (Homo sapiens, UniProt P28335).
T4 sequence (P28335 whole entry): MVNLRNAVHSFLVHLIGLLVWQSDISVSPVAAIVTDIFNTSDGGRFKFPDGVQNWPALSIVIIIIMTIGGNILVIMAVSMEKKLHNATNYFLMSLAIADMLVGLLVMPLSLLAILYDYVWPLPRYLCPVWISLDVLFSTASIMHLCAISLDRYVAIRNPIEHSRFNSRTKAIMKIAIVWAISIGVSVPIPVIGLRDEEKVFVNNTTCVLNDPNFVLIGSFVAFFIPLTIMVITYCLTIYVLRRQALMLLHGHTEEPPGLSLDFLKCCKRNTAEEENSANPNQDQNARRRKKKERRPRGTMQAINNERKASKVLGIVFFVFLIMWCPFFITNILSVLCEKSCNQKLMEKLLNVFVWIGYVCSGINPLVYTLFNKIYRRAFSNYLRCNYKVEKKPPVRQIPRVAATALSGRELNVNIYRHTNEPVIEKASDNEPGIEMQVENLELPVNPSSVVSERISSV

Assay [7] addresses T5, Type-1 angiotensin II receptor (Homo sapiens, UniProt P30556).
T5 sequence (P30556 whole entry): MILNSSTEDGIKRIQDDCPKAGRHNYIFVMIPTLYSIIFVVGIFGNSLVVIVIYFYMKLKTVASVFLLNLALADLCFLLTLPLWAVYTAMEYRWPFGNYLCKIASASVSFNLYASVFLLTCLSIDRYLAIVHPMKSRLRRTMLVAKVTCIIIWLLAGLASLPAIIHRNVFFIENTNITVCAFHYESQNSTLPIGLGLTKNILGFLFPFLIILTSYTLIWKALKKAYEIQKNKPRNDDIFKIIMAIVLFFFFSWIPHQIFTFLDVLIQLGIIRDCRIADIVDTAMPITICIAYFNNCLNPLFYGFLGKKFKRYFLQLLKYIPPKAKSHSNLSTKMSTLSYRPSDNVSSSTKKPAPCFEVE

The target in assay [8] is cGMP-inhibited 3',5'-cyclic phosphodiesterase 3A (Homo sapiens, UniProt Q14432). In kind it is functional.
Chain of cGMP-inhibited 3',5'-cyclic phosphodiesterase 3A (Q14432 whole entry): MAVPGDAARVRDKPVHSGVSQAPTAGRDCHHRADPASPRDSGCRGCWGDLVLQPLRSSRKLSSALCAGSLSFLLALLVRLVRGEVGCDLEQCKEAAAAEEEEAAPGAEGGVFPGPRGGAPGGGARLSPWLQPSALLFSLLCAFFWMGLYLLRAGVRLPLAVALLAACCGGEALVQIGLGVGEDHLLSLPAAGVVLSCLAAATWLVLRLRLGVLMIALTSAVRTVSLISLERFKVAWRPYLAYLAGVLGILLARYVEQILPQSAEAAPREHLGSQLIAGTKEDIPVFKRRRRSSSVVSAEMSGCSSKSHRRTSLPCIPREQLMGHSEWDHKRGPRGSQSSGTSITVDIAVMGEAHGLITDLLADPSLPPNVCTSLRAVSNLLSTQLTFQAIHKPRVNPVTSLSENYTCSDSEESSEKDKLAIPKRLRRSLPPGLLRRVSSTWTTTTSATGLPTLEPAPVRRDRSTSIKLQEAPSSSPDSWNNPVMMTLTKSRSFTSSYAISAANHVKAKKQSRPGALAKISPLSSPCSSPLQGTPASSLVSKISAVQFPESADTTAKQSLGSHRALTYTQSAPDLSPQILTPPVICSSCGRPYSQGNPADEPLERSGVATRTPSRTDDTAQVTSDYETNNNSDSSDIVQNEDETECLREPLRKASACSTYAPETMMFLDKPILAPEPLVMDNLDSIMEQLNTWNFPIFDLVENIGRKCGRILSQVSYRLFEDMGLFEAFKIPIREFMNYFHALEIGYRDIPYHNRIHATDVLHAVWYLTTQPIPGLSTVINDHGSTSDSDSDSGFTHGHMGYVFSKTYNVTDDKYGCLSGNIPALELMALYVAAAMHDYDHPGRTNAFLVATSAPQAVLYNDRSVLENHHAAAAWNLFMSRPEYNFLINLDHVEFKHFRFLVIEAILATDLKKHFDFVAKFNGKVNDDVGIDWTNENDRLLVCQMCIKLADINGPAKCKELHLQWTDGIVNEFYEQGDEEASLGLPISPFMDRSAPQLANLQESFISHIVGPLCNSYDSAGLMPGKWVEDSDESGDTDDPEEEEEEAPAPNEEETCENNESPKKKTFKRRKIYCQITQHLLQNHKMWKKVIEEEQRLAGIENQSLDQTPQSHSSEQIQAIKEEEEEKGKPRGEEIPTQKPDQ
The target in assay [9] is Delta-type opioid receptor (Homo sapiens, UniProt P41143).
Chain of Delta-type opioid receptor (P41143 whole entry): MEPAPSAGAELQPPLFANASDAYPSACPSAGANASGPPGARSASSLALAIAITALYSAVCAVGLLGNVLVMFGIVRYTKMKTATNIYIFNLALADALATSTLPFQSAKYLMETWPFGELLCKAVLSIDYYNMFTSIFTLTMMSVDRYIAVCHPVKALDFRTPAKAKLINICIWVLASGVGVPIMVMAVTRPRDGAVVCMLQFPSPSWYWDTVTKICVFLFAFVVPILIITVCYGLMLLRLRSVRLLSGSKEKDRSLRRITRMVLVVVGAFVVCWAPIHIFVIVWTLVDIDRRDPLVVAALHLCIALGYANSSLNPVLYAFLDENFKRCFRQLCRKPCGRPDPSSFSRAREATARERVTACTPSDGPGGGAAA
Assay [10] concerns the target D(3) dopamine receptor (Homo sapiens, UniProt P35462).
For assay [11], the target named is Vasopressin V2 receptor (Homo sapiens, UniProt P30518).
Chain of Vasopressin V2 receptor (P30518 whole entry): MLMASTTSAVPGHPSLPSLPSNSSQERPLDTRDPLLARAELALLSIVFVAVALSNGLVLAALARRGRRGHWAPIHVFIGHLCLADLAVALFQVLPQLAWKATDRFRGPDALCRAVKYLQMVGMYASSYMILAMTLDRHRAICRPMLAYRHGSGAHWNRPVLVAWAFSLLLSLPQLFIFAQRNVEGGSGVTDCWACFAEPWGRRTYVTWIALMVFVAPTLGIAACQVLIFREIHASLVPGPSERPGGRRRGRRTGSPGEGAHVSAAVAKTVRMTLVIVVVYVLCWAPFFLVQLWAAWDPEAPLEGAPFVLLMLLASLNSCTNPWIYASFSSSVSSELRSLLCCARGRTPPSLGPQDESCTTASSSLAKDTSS
Assay [12] deals with Sodium-dependent noradrenaline transporter (Homo sapiens, UniProt P23975).
Chain of Sodium-dependent noradrenaline transporter (P23975 whole entry): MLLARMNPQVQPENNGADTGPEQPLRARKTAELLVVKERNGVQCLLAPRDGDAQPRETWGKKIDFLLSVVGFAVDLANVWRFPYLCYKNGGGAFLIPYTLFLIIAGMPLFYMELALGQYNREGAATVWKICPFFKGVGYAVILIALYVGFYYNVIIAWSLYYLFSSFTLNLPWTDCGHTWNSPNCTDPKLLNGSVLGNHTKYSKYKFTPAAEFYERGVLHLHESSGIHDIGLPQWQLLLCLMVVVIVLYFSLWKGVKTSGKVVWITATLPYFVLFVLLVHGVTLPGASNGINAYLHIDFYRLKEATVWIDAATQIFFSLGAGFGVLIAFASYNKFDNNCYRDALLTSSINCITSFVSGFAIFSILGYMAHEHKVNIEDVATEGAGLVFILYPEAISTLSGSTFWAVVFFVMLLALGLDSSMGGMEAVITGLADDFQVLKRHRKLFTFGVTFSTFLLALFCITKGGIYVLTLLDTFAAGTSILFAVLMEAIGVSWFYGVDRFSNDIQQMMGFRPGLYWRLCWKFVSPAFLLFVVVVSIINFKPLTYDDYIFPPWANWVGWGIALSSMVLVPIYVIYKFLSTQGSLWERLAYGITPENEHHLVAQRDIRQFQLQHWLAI
In assay [13] the target is T6, B2 bradykinin receptor (Homo sapiens, UniProt P30411).
T6 sequence (P30411 whole entry): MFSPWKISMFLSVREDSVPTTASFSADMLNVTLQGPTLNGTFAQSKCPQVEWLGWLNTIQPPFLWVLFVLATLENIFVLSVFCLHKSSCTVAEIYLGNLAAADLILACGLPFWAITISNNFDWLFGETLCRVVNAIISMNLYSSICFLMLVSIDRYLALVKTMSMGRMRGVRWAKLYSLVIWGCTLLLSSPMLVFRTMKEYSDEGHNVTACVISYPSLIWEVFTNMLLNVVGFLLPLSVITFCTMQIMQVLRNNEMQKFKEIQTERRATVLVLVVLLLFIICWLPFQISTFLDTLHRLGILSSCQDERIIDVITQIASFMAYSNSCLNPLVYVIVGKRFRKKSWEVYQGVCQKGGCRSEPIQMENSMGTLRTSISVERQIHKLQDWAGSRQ

Some results are limits rather than exact numbers.
Note: assay procedure not described here.

Chain of D(3) dopamine receptor (P35462 whole entry): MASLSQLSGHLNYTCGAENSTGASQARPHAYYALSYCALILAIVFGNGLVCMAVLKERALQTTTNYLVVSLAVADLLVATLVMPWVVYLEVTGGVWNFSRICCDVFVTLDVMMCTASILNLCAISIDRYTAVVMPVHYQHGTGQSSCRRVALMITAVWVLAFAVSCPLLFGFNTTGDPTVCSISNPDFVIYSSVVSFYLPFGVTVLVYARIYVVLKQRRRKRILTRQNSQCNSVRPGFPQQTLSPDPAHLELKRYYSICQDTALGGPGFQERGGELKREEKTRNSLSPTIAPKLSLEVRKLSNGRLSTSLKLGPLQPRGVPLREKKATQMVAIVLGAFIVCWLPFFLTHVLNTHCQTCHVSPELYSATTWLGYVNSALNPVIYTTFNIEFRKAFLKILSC

By AC50 is commonly meant the concentration at which the activity in the assay is half-maximal. Consider `C=CCNc1nc(NCC=C)nc(N2CCN(C(c3ccc(F)cc3)c3ccc(F)cc3)CC2)n1` [ALMITRINE], for which the AC50 in assay [1], in assay [2], in assay [3], in assay [4], in assay [5] and in [6] was > 30 µM throughout. In addition, the AC50 in [7], in assay [8], in [9], in assay [10], in assay [11] and in assay [12] was > 30 µM throughout. Further, the AC50 in assay [13] was > 30 µM.

Take `CCC[C@H](NC(=O)[C@@H]1[C@H]2CCC[C@H]2CN1C(=O)[C@@H](NC(=O)[C@@H](NC(=O)c1cnccn1)C1CCCCC1)C(C)(C)C)C(=O)C(=O)NC1CC1`: the AC50 in assay [1] is > 30 µM; in assay [2], > 30 µM; in assay [3] it was > 10 µM; in assay [4] it was > 30 µM; in assay [5], > 10 µM; in [6], > 30 µM. Moreover, the AC50 in [7] was > 30 µM; in [8], > 30 µM; in [9], > 30 µM; in assay [10] it was > 30 µM; in assay [11], > 30 µM; in assay [12] it was > 10 µM. Moreover, the AC50 in assay [13] was > 30 µM.

As to `CC(N)C(O)c1ccccc1` (configuration not stated) [PHENYLPROPANOLAMINE], the AC50 in [1] is > 10 µM; in assay [2], > 30 µM; in assay [3] it was > 30 µM; in assay [4], > 30 µM; in assay [5], > 10 µM; in assay [6], > 30 µM. For the same compound, the concentration at half-maximal activity (AC50) was > 30 µM in [7]; > 30 µM in assay [8]; > 10 µM in assay [9]; > 10 µM in [10]; > 30 µM in assay [11]; > 30 µM in assay [12]. In assay [13], the AC50 is > 30 µM.

With `CC(C)[C@H](N)C(=O)OCC(CO)OCn1cnc2c(=O)nc(N)[nH]c21` (some centres not stated) [VALGANCICLOVIR], the AC50 in assay [1], in [2], in assay [3], in assay [4], in assay [5] and in assay [6] was > 30 µM each time. Besides, the concentration at half-maximal activity (AC50) in assay [7] was > 30 µM; in [8], 7 µM; in assay [9], > 30 µM; in assay [10], > 30 µM; in [11], > 30 µM; in [12], > 30 µM. Besides, in [13], the AC50 is > 30 µM.

Consider `CC1(C)S[C@@H]2[C@H](NC(=O)[C@H](N)c3ccccc3)C(=O)N2[C@H]1C(=O)OCOC(=O)[C@@H]1N2C(=O)C[C@H]2S(=O)(=O)C1(C)C` [SULTAMICILLIN], for which the half-maximal activity concentration (AC50) in [1], in [2], in assay [3], in assay [4], in assay [5] and in assay [6] was > 30 µM throughout. In addition, the concentration at half-maximal activity (AC50) in assay [7], in [8], in assay [9], in assay [10], in assay [11] and in assay [12] was > 30 µM throughout. Besides, the AC50 in assay [13] is > 30 µM.

Consider `C[C@]12CCC(=O)C(O)=C1CC[C@@H]1[C@@H]2CC[C@]2(C)C(=O)CC[C@@H]12` [FORMESTANE], for which the AC50 in assay [1], in [2], in [3], in assay [4], in assay [5] and in [6] was > 30 µM throughout. In addition, the AC50 in assay [7], in assay [8], in assay [9], in assay [10], in [11] and in assay [12] was > 30 µM in each case. In addition, the concentration at half-maximal activity (AC50) in assay [13] was > 30 µM.

With `Cc1noc(NS(=O)(=O)c2ccc(N)cc2)c1C` [SULFISOXAZOLE], the concentration at half-maximal activity (AC50) in assay [1] was > 30 µM; in assay [2] it was > 10 µM; in assay [3], > 10 µM; in assay [4], > 10 µM; in [5], > 10 µM; in assay [6], > 30 µM. Moreover, the half-maximal activity concentration (AC50) is > 10 µM in [7]; > 30 µM in [8]; > 30 µM in [9]; > 30 µM in assay [10]; > 10 µM in [11]; > 10 µM in assay [12]. In addition, the AC50 in [13] is > 10 µM.

With `CC(C)NCC(O)c1ccc(O)c(O)c1` (configuration not stated) [ISOPROTERENOL], the AC50 was > 10 µM in assay [1]; > 30 µM in assay [2]; > 30 µM in [3]; > 30 µM in [4]; > 10 µM in assay [5]; > 30 µM in assay [6]. The AC50 in assay [7] is > 30 µM; in assay [8] it was 18 µM; in assay [9], > 10 µM; in assay [10] it was > 30 µM; in assay [11], > 30 µM; in assay [12] it was > 30 µM. Further, in assay [13], the AC50 is > 30 µM.

For `CC(=O)N[C@@H](CS)C(=O)O` [ACETYLCYSTEINE], the half-maximal activity concentration (AC50) in assay [1], in [2], in [3], in assay [4], in [5] and in [6] was > 30 µM in each case. Besides, the concentration at half-maximal activity (AC50) in assay [7], in [8], in assay [9], in assay [10], in [11] and in assay [12] was > 30 µM in each case. Moreover, in assay [13], the AC50 was > 30 µM.
